For orientation: IC50 means the midpoint of a concentration-inhibition curve.

Assay [1] concerns streptozotocin-induced diabetic rats. The arrangement: method as in Huang et al., 2010. To be noted: intravenous injection, ref Huang et al., 2010; cited from earlier work.
For assay [2], the system named is intestinal inflammation model. Also noted: method as in Carrillo-Ocampo et al., 2013. The conditions noted are these: ref Carrillo-Ocampo et al., 2013; cited from earlier work.
The test system of assay [3] is tyrosine phosphatase SHP-1. The arrangement: method as in Pesce et al., 2015. To be noted: U937 cell line; ref Pesce et al., 2015; cited from earlier work.
In assay [4] the test system is LPS-induced NO production in RAW 264.7 cell. The assay is described as follows: Nitric oxide assay (Griess test), LPS-induced NO production. The class given is cell-based. The conditions noted are these: Mus musculus; RAW264.7 cell, LPS 1 μg/mL, positive control, n = 5; read-out: IC50 of inhibitory activity on LPS-induced NO production. As for the experimental part:
RAW 264.7 mouse macrophages were cultured in high glucose DMEM supplemented with 10% FBS and a mixture of penicillin and streptomycin. The cells were maintained in a humidified incubator with an atmosphere of 5% CO2 at 37°C. RAW 264.7 cells were plated at a density of 5 × 10^5 cells/mL in 24-well plates, cultured for 12 h, and then treated with LPS (1 μg/mL) and incubated for 4 h. Thereafter, the cells were treated with different concentrations (25, 50, 100, 200, and 400 μg/mL) of C. daurica extracts (water, n-butanol, ethyl acetate, and petroleum-ether extracts) and incubated for an additional 20 h. […] The amount of NO in the medium was detected using the Griess test. One hundred microliters of each supernatant were mixed with equal volume of Griess reagent (1% sulfanilamide in 5% phosphoric acid and 0.1% naphthylethylenediamine dihydrochloride in water). The absorbance of the mixture at 550 nm and concentration of nitrite were determined using serially diluted sodium nitrite as the standard ([Qiao et al., 2005]).
On the technique in general: The Griess reaction detects nitrite, a stable product of nitric oxide.

Consider `OC[C@H]1O[C@@H](O[C@@H]2OC=C[C@H]3[C@H](O)[C@@H]4O[C@]4(CO)[C@@H]23)[C@H](O)[C@@H](O)[C@@H]1O` [Compound 1, catalpol], for which the anti-hyperglycemic activity entry in assay [1] was “exhibited anti-hyperglycemic activity in a dose-dependent manner”. Regarding `C[C@@H]1O[C@@H](O[C@@H]2[C@@H](O)[C@H](OCCc3ccc(O)c(O)c3)O[C@H](CO)[C@H]2OC(=O)/C=C/c2ccc(O)c(O)c2)[C@H](O)[C@H](O)[C@H]1O` [Compound 7, verbascoside], in assay [2], the “presence of pro-inflammatory molecules” value is “decreased the presence of pro-inflammatory molecules”. Also, the “activity of tyrosine phosphatase SHP-1” value in assay [3] is recorded as “increasing the activity of tyrosine phosphatase SHP-1”.

As for `COc1ccc2c(c1)c(CC(=O)O)c(C)n2C(=O)c1ccc(Cl)cc1` [Indomethacin], in assay [4], the IC50 stood at 60 ± 0.8 µM.

The record behind these values is publication PMC7019114, “Bioactivity, Compounds Isolated, Chemical Qualitative, and Quantitative Analysis of Cymbaria daurica Extracts” (Frontiers in Pharmacology, 2020).
